Entries after “also recorded” stand apart in the source; their conditions may differ.
Columns and labels:
[1] = test system: SPF SD line rats; assay: Acute toxicity test in rat via non-oral administration; format: in vivo
Description: Six-week old SPF SD line rats were used in the tests for acute toxicity. 2-(2-amino-3-methoxyphenol)-4H-1-benzopyran-4-one (PD98059) of the present invention was suspended in 0.5% methyl cellulose solution and intravenous injected once into two rats per group at dosages of 50, 30, and 10 mg/kg/15 ml. Death, clinical symptoms, and weight change in the rats were observed, hematological tests and biochemical tests of blood were performed, and abnormal signs in the gastrointestinal organs of chest and abdomen were observed visually during autopsy.

[2] = test system: rabbit articular chondrocytes; assay: De-differentiation of articular chondrocytes in serial monolayer culture (type-II collagen, proteoglycan synthesis); format: cell-based; conditions: two days; for expression of type-II collagen: 20 μM
Description: In order to confirm the de-differentiation and degeneration of chondrocytes, the present inventors have performed consecutively monolayer culture with articular chondrocytes of a two- to four-week-old rabbit (FIG. 1B). Particularly, articular cartilage of the rabbit was thin-sectioned aseptically, and the articular fragments were then reacted in PBS containing 0.2% collagenase type-II (Sigma) for six hours. Through quick-centrifugation, single cells were obtained. The single cells were suspended in DMEM (Dulbecco 's modified Eagle's medium, Gibco BRL, Gaithersburg, Md., USA) containing 10% FBS, 50 μg/ml streptomycin, and 50 units/ml penicillin and were plated onto a culture-dish at a density of 5×10^4 cells/cm^2 and cultured at 37° C. The medium was changed every other day. Five days later, the culture dish was filled with grown-up cells, which were identified as P0. Those cells were subcultured at the concentration of 5×10^4 cells/cm^2 per culture dish. The cells were continuously subcultured whenever they were fully grown to fill the dishes and were identified as P1 and next P2. Subculture was finished when P6 phase was completed. […] It was also confirmed by alcian blue staining that the accumulation of glycosaminoglycan sulfide was decreased as the subculture was continued. The de-differentiation and degeneration of chondrocytes were also disclosed by observing the shape of chondrocytes, which was changed from their distinguished round shape to fibroblast shape, a characteristic of degenerated chondrocytes (FIG. 2B).
In order to ascertain the effect of ERK activity on the de-differentiation of chondrocytes, rabbit articular cartilage cells were cultured at the density of 5×10^4 cells/cm^2 on a culture dish. The cells began to proliferate on the second day of culture and reached saturation on the fifth day. The cells in saturation point were designated as P0. The cells in P0 stage had typical round or polygonal shapes, but these forms changed into flat and fibroblast-like shapes while the cells were going through P6 stage by serial monolayer culture (FIG. 2B). The expression of type-II collagen was analyzed by Western and Northern blotting, resulting in the highest expression in, P0, beginning to decrease in P1 and almost no expression after P3 (FIG. 4A). […] Therefore, it was confirmed that the ERK activity was in inverse proportion to the expression of type-II collagen, which means the ERK activity plays an important role in the de-differentiation process.
To determine the relations between ERK activity and de-differentiation, the cells under subculturing were treated with 2-(2-amino-3-methoxyphenol)-4H-1-benzopyran-4-one (PD98059), an ERK activity inhibitor, and the synthesis of collagen and proteoglycan was observed. […]

[3] = test system: ERK; assay: ERK activity in serially monolayer-cultured articular chondrocytes; format: cell-based, rabbit; conditions: 20 μM, chondrocytes of each passage, two additional days
Description: In order to confirm the de-differentiation and degeneration of chondrocytes, the present inventors have performed consecutively monolayer culture with articular chondrocytes of a two- to four-week-old rabbit (FIG. 1B). Particularly, articular cartilage of the rabbit was thin-sectioned aseptically, and the articular fragments were then reacted in PBS containing 0.2% collagenase type-II (Sigma) for six hours. Through quick-centrifugation, single cells were obtained. The single cells were suspended in DMEM (Dulbecco 's modified Eagle's medium, Gibco BRL, Gaithersburg, Md., USA) containing 10% FBS, 50 μg/ml streptomycin, and 50 units/ml penicillin and were plated onto a culture-dish at a density of 5×10^4 cells/cm^2 and cultured at 37° C. The medium was changed every other day. Five days later, the culture dish was filled with grown-up cells, which were identified as P0. Those cells were subcultured at the concentration of 5×10^4 cells/cm^2 per culture dish. […]
In order to ascertain the effect of ERK activity on the de-differentiation of chondrocytes, rabbit articular cartilage cells were cultured at the density of 5×10^4 cells/cm^2 on a culture dish. […] The expression of type-II collagen was analyzed by Western and Northern blotting, resulting in the highest expression in, P0, beginning to decrease in P1 and almost no expression after P3 (FIG. 4A). […]

[4] = test system: COX-2; assay: COX-2 expression in IL-1β treated chondrocytes (Western blotting); format: cell-based
Description: The present inventors have further investigated the relation between the inhibition of ERK activity and the expression of COX-2. Particularly, the inventors have confirmed with Western blotting the quantity of cox-2 protein expressed in chondrocytes after treating the cells with different concentrations of IL-1β for 24 hours.

[5] = test system: limb bud mesenchymal cells of chicken embryo; assay: Differentiation of mesenchymal cells to chondrocytes (alcian blue staining, type-II collagen Western blot); format: cell-based
Description: (§1) The present inventors have observed the differentiation process of chondrocytes using limb bud mesenchymal cells of Hamburger-Hamilton stage 24-25 chicken embryo under micromass culture (FIG. 1A). Particularly, mesenchymal cells were suspended in Ham's F-12 medium (Gibco BRL, Gaithersburg, Md., USA) supplemented with 10% fetal bovine serum (2×10^7 cells/ ml). The cell suspension was loaded onto culture dish (15 μl/spot) and cultured at 37° C. for two hours in order to fix the cells on the dish. The cells were further cultured in the Ham's F-12 medium containing 10% FBS, 50 μg/ml streptomycin, and 50 units/ml penicillin.
As a result, when mesenchymal cells were micromass cultured for five days, the synthesis of type-II collagen, a characteristic of chondrocytes, began to take place from the third day of culturing, which was confirmed by Western blotting using an antibody implying that the differentiation of chondrocytes was progressed. The accumulation of sulfated proteoglycan was also confirmed through alcian blue staining to be increased, which also implied that the differentiation of chondrocytes began from the third day of culturing and completed on the fifth day (FIG. 2A).
The present inventors have confirmed the effect of ERK activity inhibition on the differentiation of chondrocytes. […]

[6] = test system: P0 and P2 chondrocytes; assay: Immunostaining of type-II collagen in P0 and P2 chondrocytes; format: cell-based, rabbit; conditions: 20 μM, two days, immunofluorescence
Description: In order to examine the suppression of de-differentiation by the inhibition of ERK activity, the expression of collagen was observed by immunostaining. Particularly, 20 μM of ERK activity inhibitor 2-(2-amino-3-methoxyphenol)-4H-1-benzopyran-4-one (PD98059) was added into P0 and P2 chondrocytes, and the cells were then cultured for two days. The cultured cells were fixed with 3% parpformaldehyde for ten minutes and some parts of the cell membranes were disrupted by 0.2% X-100. Next, anti-type II collagen antibody (10 μg/ml) was added thereto and continued to culture thereof for one hour.

[7] = test system: MMP-9; assay: MMP-9 activity/expression by gelatin zymography in IL-1β treated articular cartilage cells; format: cell-based
Description: Particularly, articular cartilage cells were treated with 10 ng/ml of IL-1β according to the different times (0 minutes, ten minutes, thirty minutes, one hour, two hours, four hours, six hours, twelve hours, and 24 hours) and concentrations (0 ng/ml, 0.01 ng/ml , 0.1 ng/ml, 1 ng/ml, and 10 ng/ml), and culture supernatant was then obtained, followed by electrophoresis on the gel containing 2% gelatin. The separated gel was cultured at 37° C. for twelve hours, by which the decomposition of gelatin was induced by MMP-9. The remaining gelatin was stained for the confirmation of gelatin decomposition by MMP, based on which the MMP-9 activity was measured.

[8] = test system: ERK; assay: ERK activity (Western blot, phosphorylated ERK-specific antibody) in micromass-cultured mesenchymal cells; format: cell-based, chicken; conditions: mesenchymal cells treated with PD98059, micromass culture
Description: as §1
The present inventors have confirmed the effect of ERK activity inhibition on the differentiation of chondrocytes. Particularly, the present inventors have investigated how the differentiation was influenced by the change and the inhibition of ERK activity during the differentiation process of chondrocytes induced by micromass culture of mesenchimal cells (FIG. 2A and Example 1-1). […] Therefore, it was confirmed that the decrease of ERK activity was required for the differentiation from mesenchimal cells to chondrocytes; that is, the differentiation of chondrocytes was stimulated by the inhibition of ERK activity.
(§2) For the activation of ERK, phosphorylation by MEK, the upstream signal transduction molecule of ERK, is required.

[9] = test system: ERK; assay: ERK activity in SNP treated chondrocytes; format: cell-based
Description: (§3) In order to investigate the effect of ERK activity on the de-differentiation of chondrocytes induced by NO production, the change of ERK activity in SNP treated chondrocytes was detected. […] In order to increase the ERK activity by SNP, at least 0. […] The ERK activity inhibitor also restrained the inhibition of type-II collagen expression by SNP (FIG. 8C), and it blocked the decrease of proteoglycan synthesis induced by SNP (FIG. 8D).
as §2

[10] = test system: chondrocytes; assay: NO (SNP) induced de-differentiation of chondrocytes (type-II collagen, proteoglycan); format: cell-based
Description: as §3

[11] = test system: chondrocytes; assay: IL-1β induced NO production in chondrocytes (nitrite); format: cell-based
Description: Particularly, the amount of NO was determined by measuring the concentration of nitrite, a reaction product of NO, secreted after treating chondrocytes with IL1-β for 24 hours.

[12] = test system: chondrocytes; assay: NO production in chondrocytes treated with SNP; format: cell-based
Description: In order to investigate the effect of NO produced in chondrocytes on the de-differentiation of chondrocytes, the present inventors treated the cells with […] (SNP), a NO donor, to induce No production.

[13] = test system: ERK; assay: ERK activity in IL-1β treated chondrocytes; format: cell-based; conditions: chondrocytes treated with IL-1β
[14] = single intravenous injection, 50, 30 and 10 mg/kg/15 ml

## COc1cccc(-c2cc(=O)c3ccccc3o2)c1N [PD98059, 2-(2-amino-3-methoxyphenol)-4H-1-benzopyran-4-one]
[1]; single intravenous injection
  level not causing any toxic change: ≤ 50 mg/kg
[1]; [14]
  clinical symptoms, weight change, death: did not cause any specific clinical symptoms, weight change, or death
  hematological tests, biochemical tests of blood, autopsy: No change was observed
[2]; P0, 20 μM
  increase of synthesis of proteoglycan by a factor (alcian blue staining): 2.6
[2]; P0 cells
  expression of type-II collagen: largely increased
[2]; P2, 20 μM
  increase of synthesis of proteoglycan by a factor (alcian blue staining): 6.4
[2]; P2 cells
  expression of type-II collagen: turned to express again
[3]
  ERK activity: suppressed
[4]; 5 μM PD98059, IL-1β for 24 hours
  expression of cox-2: completely suppressed
[5]; mesenchymal cells treated with PD98059
  synthesis of proteoglycan (alcian blue staining): remarkably increased; also recorded: largely increased
[5]; mesenchymal cells treated with PD98059, Western blot
  expression of type-II collagen: also increased
[6]; P0 cells
  numbers of type-II collagen expressed cells: remarkably increased
[6]; P2 cells
  numbers of type-II collagen expressed cells: greatly increased
[7]; 10 μM PD98059, IL-1β treated chondrocytes
  expression of MMP-9: suppressed
[8]
  activity of ERK: decreased in a dose-dependent manner
[9]; 20 μM PD98059, SNP treated chondrocytes
  ERK activity: totally restrained
[10]; PD98059 with SNP
  decrease of proteoglycan synthesis induced by SNP: blocked
  inhibition of type-II collagen expression by SNP: restrained
[11]; 5 μM PD98059, IL-1β for 24 hours, nitrite
  NO production caused by IL-1β: completely inhibited

## CC(=O)N[C@H](C(=O)O)C(C)(C)SN=O [SNP, S-nitroso-N-acetyl penicillamine]
[9]; 1 mM SNP
  ERK activity, time course: began to increase three hours after the treatment and reached the highest activity twelve hours later
[9]; chondrocytes
  SNP concentration required to increase the ERK activity: at least 0. 5 mM
[12]
  NO production: in proportion to the concentration
[10]; 0.1 mM SNP, 24 hours
  expression of type-II collagen: started to decrease
[10]; 1 mM SNP, 12 hours
  expression of type-II collagen: began to decrease
[10]; 1 mM SNP, 24 hours
  expression of type-II collagen: totally suppressed
[10]; SNP treated chondrocytes
  synthesis of proteoglycan: decreased depending on the concentration

## IL-1β: an inflammatory cytokine
[4]; different concentrations of IL-1β, 24 hours
  expression of cox-2: increased depending on the concentration
[7]; IL-1β 0-10 ng/ml, gelatin zymography
  expression of MMP-9: largely increased depending on the concentration
[13]
  ERK activity: temporarily increased at the early stage
[11]; chondrocytes treated with IL-1β
  NO production: stimulates NO production in a dose-dependent manner

From US20040176289A1, “Pharmaceutical composition for prevention and treatment of joint arthritis and a screening method thereof” (priority 2001, published 2004)
